These results are taken from US20240116985A1, “STAPLED PEPTIDES AND METHODS THEREOF” (priority 2020, published 2024).

Where two headings read alike, the source gives them in different places.

The target in the test is T1, full-length beta-Catenin (Uniprot ID P35222) (Homo sapiens, UniProt P35222).
T1 construct: 10 nM full-length beta-Catenin (Uniprot ID P35222)
T1 sequence (P35222 1-781): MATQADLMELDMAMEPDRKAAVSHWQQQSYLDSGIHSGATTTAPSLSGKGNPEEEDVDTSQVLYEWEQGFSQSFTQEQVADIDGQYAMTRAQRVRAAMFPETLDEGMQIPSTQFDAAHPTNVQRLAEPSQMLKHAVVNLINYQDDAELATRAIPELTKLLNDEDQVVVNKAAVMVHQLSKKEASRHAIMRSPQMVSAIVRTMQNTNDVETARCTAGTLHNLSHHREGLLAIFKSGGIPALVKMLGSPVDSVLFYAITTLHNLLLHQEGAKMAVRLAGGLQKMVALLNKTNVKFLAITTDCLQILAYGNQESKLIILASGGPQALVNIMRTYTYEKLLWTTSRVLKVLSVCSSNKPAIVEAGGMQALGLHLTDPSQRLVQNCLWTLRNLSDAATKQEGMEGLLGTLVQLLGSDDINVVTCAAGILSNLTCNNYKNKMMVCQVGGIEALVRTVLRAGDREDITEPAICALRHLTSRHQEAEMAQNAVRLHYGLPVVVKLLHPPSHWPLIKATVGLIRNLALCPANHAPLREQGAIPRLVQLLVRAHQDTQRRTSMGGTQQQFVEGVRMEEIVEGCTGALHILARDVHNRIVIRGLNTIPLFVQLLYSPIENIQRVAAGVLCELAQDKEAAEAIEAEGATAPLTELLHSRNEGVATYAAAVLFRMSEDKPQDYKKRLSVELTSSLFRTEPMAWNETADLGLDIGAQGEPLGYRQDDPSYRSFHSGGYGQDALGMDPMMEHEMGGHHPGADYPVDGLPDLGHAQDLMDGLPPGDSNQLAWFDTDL
Nature of the test: Fluorescence polarization IC50 (beta-catenin / 5FAM-TCF4 10-53 competition). Type of test: binding. In general terms: In fluorescence polarisation assays a small probe gives low polarisation when free and higher when bound to something large.

[1] abbreviates: fluorescence polarization; read-out: beta-Catenin FP IC50.
The mark [2] stands for this setting: read-out: beta-Catenin FP IC50; fluorescence polarization.

By IC50 is commonly meant the concentration that inhibits the measured activity by half. For the molecule `CC(=O)N1CCC[C@]12CC=CCCCC1(CCCC=CCCCOC(=O)N3CC[C@@](C(=O)N[C@@H](Cc4ccsc4)C(=O)N[C@@H](Cc4csc5ccccc45)C(=O)N[C@@H](CCC(N)=O)C(N)=O)(C3)NC(=O)[C@H](CCC(=O)N3CCn4cncc4C3)NC(=O)[C@H](Cc3ccccc3)NC(=O)[C@H](C)NC(=O)[C@H](C)NC(=O)[C@H](CN(CC(=O)O)CC(F)(F)F)NC(=O)[C@H](CC(=O)O)NC1=O)NC(=O)[C@H](CC(C)(C)C)NC(=O)[C@H](CC(=O)O)NC2=O` (stereo partly drawn) [I-1934, Ac-PL3-Asp-Npg-B5-Asp-TfeGA-Ala-Ala-Phe-[H4IAP]GlnR-PyrS2-3Thi-BztA-Gln-NH2], the IC50 under setting [1] is 5 nM. Turning to `CC(=O)N1CCC[C@]12CC=CCCCC1(CCCC=CCCCOC(=O)N3CC[C@@](C(=O)N[C@@H](Cc4ccsc4)C(=O)N[C@@H](Cc4csc5ccccc45)C(=O)N[C@@H](CCC(N)=O)C(N)=O)(C3)NC(=O)[C@H](CCC(=O)N3CCC(N4CCN(C)CC4)CC3)NC(=O)[C@H](Cc3ccccc3)NC(=O)[C@H](C)NC(=O)[C@H](C)NC(=O)[C@H](CN(CC(=O)O)CC(F)(F)F)NC(=O)[C@H](CC(=O)O)NC1=O)NC(=O)[C@H](CC(C)(C)C)NC(=O)[C@H](CC(=O)O)NC2=O` (stereo partly drawn) [I-1937, Ac-PL3-Asp-Npg-B5-Asp-TfeGA-Ala-Ala-Phe-[4MePpzPip]GlnR-PyrS2-3Thi-BztA-Gln-NH2], the IC50 under setting [1] amounted to 9 nM.

In the case of `CC(=O)N1CCC[C@]12CC=CCCCC1(CCCC=CCCCOC(=O)N3CC[C@@](C(=O)N[C@@H](Cc4ccsc4)C(=O)N[C@@H](Cc4csc5ccccc45)C(=O)N[C@@H](CCC(N)=O)C(N)=O)(C3)NC(=O)[C@H](CC(C)C)NC(=O)[C@H](Cc3ccccc3)NC(=O)[C@H](C)NC(=O)[C@H](C)NC(=O)[C@H](CC(=O)O)NC(=O)[C@H](CC(=O)S)NC1=O)NC(=O)[C@H](CC(C)(C)C)NC(=O)[C@H](CC(=O)O)NC2=O` (stereo partly drawn) [I-1944, Ac-PL3-Asp-Npg-B5-AspSH-Asp-Ala-Ala-Phe-Leu-PyrS2-3Thi-BztA-Gln-NH2], the IC50 under setting [1] was 1630 nM.

For `CC(=O)N1CCC[C@]12CC=CCCCC1(CCCC=CCCCOC(=O)N3CC[C@@](C(=O)N[C@@H](Cc4ccsc4)C(=O)N[C@@H](Cc4csc5ccccc45)C(=O)N[C@@H](CCC(N)=O)C(N)=O)(C3)NC(=O)[C@H](CC(C)C)NC(=O)[C@H](Cc3ccccc3)NC(=O)[C@H](C)NC(=O)[C@H](C)NC(=O)[C@H](CC(=O)O)NC(=O)[C@H](CC(=O)S)NC1=O)NC(=O)[C@H](CC(C)(C)C)NC(=O)[C@H](CC(=O)O)NC2=O` (stereo partly drawn) [I-1945, Ac-PL3-Asp-Npg-B5-AspSH-Asp-Ala-Ala-Phe-Leu-PyrS2-3Thi-BztA-Gln-NH2], the IC50 under setting [1] was determined as 918 nM.

As for `CC(=O)N1CCC[C@]12CC=CCCCC1(CCCC=CCCCOC(=O)N3CC[C@@](C(=O)N[C@@H](Cc4ccsc4)C(=O)N[C@@H](Cc4csc5ccccc45)C(=O)N[C@@H](CCC(N)=O)C(N)=O)(C3)NC(=O)[C@H](CC(C)C)NC(=O)[C@H](Cc3ccccc3)NC(=O)[C@H](C)NC(=O)[C@H](C)NC(=O)[C@H](CC(=O)S)NC(=O)[C@H](CC(=O)O)NC1=O)NC(=O)[C@H](CC(C)(C)C)NC(=O)[C@H](CC(=O)O)NC2=O` (stereo partly drawn) [I-1946, Ac-PL3-Asp-Npg-B5-Asp-AspSH-Ala-Ala-Phe-Leu-PyrS2-3Thi-BztA-Gln-NH2], the IC50 under setting [1] stood at 874 nM. Same read-out and setting: in the case of `CC(=O)N1CCC[C@]12CC=CCCCC1(CCCC=CCCCOC(=O)N3CC[C@@](C(=O)N[C@@H](Cc4ccsc4)C(=O)N[C@@H](Cc4csc5ccccc45)C(=O)N[C@@H](CCC(N)=O)C(N)=O)(C3)NC(=O)[C@H](CC(C)C)NC(=O)[C@H](Cc3ccccc3)NC(=O)[C@H](C)NC(=O)[C@H](C)NC(=O)[C@H](CC(=O)S)NC(=O)[C@H](CC(=O)O)NC1=O)NC(=O)[C@H](CC(C)(C)C)NC(=O)[C@H](CC(=O)O)NC2=O` (stereo partly drawn) [I-1947, Ac-PL3-Asp-Npg-B5-Asp-AspSH-Ala-Ala-Phe-Leu-PyrS2-3Thi-BztA-Gln-NH2] it was 253 nM; in that of `CC(=O)N1CCC[C@]12CC=CCCCC1(CCCC=CCCCOC(=O)N3CC[C@@](C(=O)N[C@@H](Cc4ccsc4)C(=O)N[C@@H](Cc4csc5ccccc45)C(=O)N[C@@H](CCC(N)=O)C(N)=O)(C3)NC(=O)[C@H](CC(C)C)NC(=O)[C@H](Cc3ccccc3)NC(=O)[C@H](C)NC(=O)[C@H](C)NC(=O)[C@H](CCC(=O)S)NC(=O)[C@H](CC(=O)O)NC1=O)NC(=O)[C@H](CC(C)(C)C)NC(=O)[C@H](CC(=O)O)NC2=O` (stereo partly drawn) [I-1948, Ac-PL3-Asp-Npg-B5-Asp-GluSH-Ala-Ala-Phe-Leu-PyrS2-3Thi-BztA-Gln-NH2], 1330 nM; in that of `CC(=O)N1CCC[C@]12CC=CCCCC1(CCCC=CCCCOC(=O)N3CC[C@@](C(=O)N[C@@H](Cc4ccsc4)C(=O)N[C@@H](Cc4csc5ccccc45)C(=O)N[C@@H](CCC(N)=O)C(N)=O)(C3)NC(=O)[C@H](CC(C)C)NC(=O)[C@H](Cc3ccccc3)NC(=O)[C@H](C)NC(=O)[C@H](C)NC(=O)[C@H](CC(=O)O)NC(=O)[C@H](CC(=O)OCCSSc3ccccn3)NC1=O)NC(=O)[C@H](CC(C)(C)C)NC(=O)[C@H](CC(=O)O)NC2=O` (stereo partly drawn) [I-1950, Ac-PL3-Asp-Npg-B5-[EtSSpy]AspE-Asp-Ala-Ala-Phe-Leu-PyrS2-3Thi-BztA-Gln-NH2], 234 nM. Turning to `CC(=O)N1CCC[C@]12CC=CCCCC1(CCCC=CCCCOC(=O)N3CC[C@@](C(=O)N[C@@H](Cc4ccsc4)C(=O)N[C@@H](Cc4csc5ccccc45)C(=O)N[C@@H](CCC(N)=O)C(N)=O)(C3)NC(=O)[C@H](CC(C)C)NC(=O)[C@H](Cc3ccccc3)NC(=O)[C@H](C)NC(=O)[C@H](C)NC(=O)[C@H](CC(=O)O)NC(=O)[C@H](CC(=O)OCCSSc3ccccc3)NC1=O)NC(=O)[C@H](CC(C)(C)C)NC(=O)[C@H](CC(=O)O)NC2=O` (stereo partly drawn) [I-1955, Ac-PL3-Asp-Npg-B5-[EtSSPh]AspE-Asp-Ala-Ala-Phe-Leu-PyrS2-3Thi-BztA-Gln-NH2], the IC50 under setting [2] was found to be 1200 nM.

`CC(=O)N1CCC[C@]12CC=CCCCC1(CCCC=CCCCOC(=O)N3CC[C@@](C(=O)N[C@@H](Cc4ccsc4)C(=O)N[C@@H](Cc4csc5ccccc45)C(=O)N[C@@H](CCC(N)=O)C(N)=O)(C3)NC(=O)[C@H](CC(C)C)NC(=O)[C@H](Cc3ccccc3)NC(=O)[C@H](C)NC(=O)[C@H](C)NC(=O)[C@H](CC(=O)OCCSSc3ccccc3)NC(=O)[C@H](CC(=O)O)NC1=O)NC(=O)[C@H](CC(C)(C)C)NC(=O)[C@H](CC(=O)O)NC2=O` (stereo partly drawn) [I-1956, Ac-PL3-Asp-Npg-B5-Asp-[EtSSPh]AspE-Ala-Ala-Phe-Leu-PyrS2-3Thi-BztA-Gln-NH2] returned an IC50 (beta-Catenin FP IC50 (nM), fluorescence polarization) of 849 nM. As to `CC(=O)N1CCC[C@]12CC=CCCCC1(CCCC=CCCCOC(=O)N3CC[C@@](C(=O)N[C@@H](Cc4ccsc4)C(=O)N[C@@H](Cc4csc5ccccc45)C(=O)N[C@@H](CCC(N)=O)C(N)=O)(C3)NC(=O)[C@H](CC(C)C)NC(=O)[C@H](Cc3ccccc3)NC(=O)[C@H](C)NC(=O)[C@H](C)NC(=O)[C@H](CCC(=O)OCCSSc3ccccc3)NC(=O)[C@H](CC(=O)O)NC1=O)NC(=O)[C@H](CC(C)(C)C)NC(=O)[C@H](CC(=O)O)NC2=O` (stereo partly drawn) [I-1957, Ac-PL3-Asp-Npg-B5-Asp-[EtSSPh]GluE-Ala-Ala-Phe-Leu-PyrS2-3Thi-BztA-Gln-NH2], the IC50 under setting [2] amounted to 567 nM.

Turning to `CCCCCCSSCCOC(=O)C[C@@H]1NC(=O)[C@]2(CC=CCCCC3(CCCC=CCCCOC(=O)N4CC[C@@](C(=O)N[C@@H](Cc5ccsc5)C(=O)N[C@@H](Cc5csc6ccccc56)C(=O)N[C@@H](CCC(N)=O)C(N)=O)(C4)NC(=O)[C@H](CC(C)C)NC(=O)[C@H](Cc4ccccc4)NC(=O)[C@H](C)NC(=O)[C@H](C)NC(=O)[C@H](CC(=O)O)NC(=O)[C@H](CC(=O)O)NC3=O)NC(=O)[C@H](CC(C)(C)C)NC1=O)CCCN2C(C)=O` (stereo partly drawn) [I-1960, Ac-PL3-[EtSSHex]AspE-Npg-B5-Asp-Asp-Ala-Ala-Phe-Leu-PyrS2-3Thi-BztA-Gln-NH2], the IC50 under setting [1] worked out at 544 nM. Same read-out and setting: to `CCSSCCOC(=O)C[C@@H]1NC(=O)C2(CCCC=CCCCOC(=O)N3CC[C@@](C(=O)N[C@@H](Cc4ccsc4)C(=O)N[C@@H](Cc4csc5ccccc45)C(=O)N[C@@H](CCC(N)=O)C(N)=O)(C3)NC(=O)[C@H](CC(C)C)NC(=O)[C@H](Cc3ccccc3)NC(=O)[C@H](C)NC(=O)[C@H](C)NC(=O)[C@H](CC(=O)O)NC1=O)CCCC=CC[C@]1(CCCN1C(C)=O)C(=O)N[C@@H](CC(=O)O)C(=O)N[C@@H](CC(C)(C)C)C(=O)N2` (stereo partly drawn) [I-1964, Ac-PL3-Asp-Npg-B5-[EtSSEt]AspE-Asp-Ala-Ala-Phe-Leu-PyrS2-3Thi-BztA-Gln-NH2] belongs 738 nM; to `CCSSCCOC(=O)CC[C@@H]1NC(=O)[C@H](CC(=O)O)NC(=O)C2(CCCC=CCCCOC(=O)N3CC[C@@](C(=O)N[C@@H](Cc4ccsc4)C(=O)N[C@@H](Cc4csc5ccccc45)C(=O)N[C@@H](CCC(N)=O)C(N)=O)(C3)NC(=O)[C@H](CC(C)C)NC(=O)[C@H](Cc3ccccc3)NC(=O)[C@H](C)NC(=O)[C@H](C)NC1=O)CCCC=CC[C@]1(CCCN1C(C)=O)C(=O)N[C@@H](CC(=O)O)C(=O)N[C@@H](CC(C)(C)C)C(=O)N2` (stereo partly drawn) [I-1966, Ac-PL3-Asp-Npg-B5-Asp-[EtSSEt]GluE-Ala-Ala-Phe-Leu-PyrS2-3Thi-BztA-Gln-NH2], 566 nM.
